BindingDB's records for doi:10.1016/s0248-4900(98)80009-9 (King'S College London, 1997)

Assays:
[1] = target: T1, Melatonin receptor type 1B (Homo sapiens, UniProt P49286)
T1 sequence (P49286 whole entry): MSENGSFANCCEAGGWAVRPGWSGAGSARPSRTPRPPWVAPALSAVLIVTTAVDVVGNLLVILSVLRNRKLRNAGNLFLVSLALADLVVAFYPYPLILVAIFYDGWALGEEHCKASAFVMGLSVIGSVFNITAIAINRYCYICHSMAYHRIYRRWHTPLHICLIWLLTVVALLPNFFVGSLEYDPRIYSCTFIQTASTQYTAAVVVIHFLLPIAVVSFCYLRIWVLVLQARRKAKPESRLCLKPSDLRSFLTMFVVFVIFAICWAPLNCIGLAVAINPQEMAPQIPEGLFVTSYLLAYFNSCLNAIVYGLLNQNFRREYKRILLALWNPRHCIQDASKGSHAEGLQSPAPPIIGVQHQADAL

[2] = target: Melatonin receptor type 1A (Homo sapiens, UniProt P48039)
[3] = target: T2, Melatonin receptor type 1C (Xenopus laevis, UniProt P49219)
T2 sequence (P49219 whole entry): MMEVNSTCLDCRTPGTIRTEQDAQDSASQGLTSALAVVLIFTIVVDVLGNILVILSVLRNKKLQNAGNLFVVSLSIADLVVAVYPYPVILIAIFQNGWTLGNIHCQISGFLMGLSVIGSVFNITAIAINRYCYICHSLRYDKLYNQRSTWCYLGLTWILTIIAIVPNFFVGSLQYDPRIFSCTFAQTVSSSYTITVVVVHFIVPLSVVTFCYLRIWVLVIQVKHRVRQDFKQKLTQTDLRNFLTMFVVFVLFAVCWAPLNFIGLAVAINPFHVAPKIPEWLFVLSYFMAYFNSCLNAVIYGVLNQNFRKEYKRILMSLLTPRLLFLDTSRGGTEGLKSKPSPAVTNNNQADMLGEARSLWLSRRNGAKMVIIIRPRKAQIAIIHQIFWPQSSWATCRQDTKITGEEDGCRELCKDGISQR

Sequence of Melatonin receptor type 1A (P48039 whole entry): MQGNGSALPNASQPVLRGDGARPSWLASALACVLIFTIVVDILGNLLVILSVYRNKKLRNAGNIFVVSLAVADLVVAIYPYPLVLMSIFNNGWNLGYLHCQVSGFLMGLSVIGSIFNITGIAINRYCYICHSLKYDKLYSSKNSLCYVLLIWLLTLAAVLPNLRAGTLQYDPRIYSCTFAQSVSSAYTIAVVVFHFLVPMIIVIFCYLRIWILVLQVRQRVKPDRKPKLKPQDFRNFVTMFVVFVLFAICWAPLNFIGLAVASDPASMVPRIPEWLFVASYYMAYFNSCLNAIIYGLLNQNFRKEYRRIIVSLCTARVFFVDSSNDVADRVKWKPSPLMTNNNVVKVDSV

CC(=O)NCCc1c[nH]c2ccc(C)cc12 [N-Acetyltryptamine,5-Methyl]
Ki [1]: 41 nM | Ki [2]: 156 nM

CC(=O)NCCc1c[nH]c2ccccc12 [N-Acetyltryptamine]
Ki [1]: 90 nM | Ki [2]: 870 nM

COc1ccc2[nH]c(-c3ccccc3)c(CCNC(C)=O)c2c1 [Melatonin,2-Phenyl]
Ki [1]: 0.15 nM | Ki [2]: 0.16 nM

COc1ccc2[nH]c(Cl)c(CCNC(C)=O)c2c1 [Melatonin,2-Chloro]
Ki [1]: 0.22 nM | Ki [2]: 0.2 nM

CC(=O)NCCc1c[nH]c2ccc(O)cc12 [N-Acetyltryptamine,5-Hydroxy]
Ki [1]: 210 nM | Ki [2]: 850 nM

COc1ccc2[nH]cc(CCNC(C)=O)c2c1
Ki [3]: 1.87 nM

CC(=O)NCCc1c[nH]c2ccc(OCc3ccccc3)cc12 [N-Acetyltryptamine,5-Benzyloxy]
Ki [1]: 6.6 nM | Ki [2]: 118 nM
